{"source": "patent US8093288B2", "about": "“Genipin derivatives and uses thereof” (Beth Israel Deaconess Medical Center, priority 2003, dated 2012)", "key": {"UCP2": {"molecular_target": "T1, UCP2 (Mus musculus, UniProt P70406)", "T1 construct": "Wildtype and UCP2 knockout mice were used for isolation of kidney mitochondria; from tissue; host or cells: kidney mitochondria of wildtype mice", "T1 sequence (P70406 1-309)": "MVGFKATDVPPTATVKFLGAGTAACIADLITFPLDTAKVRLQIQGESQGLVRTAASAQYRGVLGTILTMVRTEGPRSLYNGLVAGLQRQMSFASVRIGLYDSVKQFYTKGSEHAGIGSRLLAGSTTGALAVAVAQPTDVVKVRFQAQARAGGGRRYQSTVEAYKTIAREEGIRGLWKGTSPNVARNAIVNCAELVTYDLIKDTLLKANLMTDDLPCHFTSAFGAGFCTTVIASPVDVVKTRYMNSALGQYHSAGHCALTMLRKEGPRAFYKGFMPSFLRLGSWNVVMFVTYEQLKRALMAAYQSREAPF", "assay": "Proton leak titration in isolated kidney mitochondria of wildtype mice with superoxide-generating system", "type": "biochemical", "conditions": "50 μM genipin with 50 mM xanthine and 0.2 mU/3.5 mL xanthine oxidase, FIG. 2"}, "[1]": {"system": "pancreatic islets from UCP2 knockout mice", "assay": "Insulin secretion in isolated pancreatic islets from UCP2 knockout mice", "type": "cell-based", "conditions": "5.5 mM glucose, 50 nM, 0.5 μM and 5 μM genipin, 37° C. for 60 min, FIG. 4 / FIG. 11B", "experimental": "As used or herein, pancreatic islets from wildtype and UCP2 knockout mice were isolated according to a method used for rats (Cawthorn and Chan, Mol. Cell. Endocrinol. 1991, 75:197-204, the entire teachings of which are incorporated herein by reference), except that the total exposure to type XI collagenase (Worthington Biochemical Co., NJ) was 30 min. and the Ficoll gradient was altered to layers of 25%, 23%, 21%, and 11%. Islets were harvested from the 11%-21% interface.\nIslets were cultured in RPMI medium containing 11.0 mM glucose and supplemented with 1% penicillin-streptomycin. 7.5% fetal bovine serum (all from Gibco/BRL, Burlington, ON), and 10 mM Hepes (Sigma). After culturing for 20-24 hr, the islets were transferred to microcentrifuge tubes, pelleted (800 g for 5 min), and the medium aspirated and replaced with 1.0 mL DME medium containing 1% gelatin and 5.5 mM glucose with no genipin (control), 50 nM genipin, 0.5 μM genipin, and 5 μM genipin. For insulin secretion studies, the three islets were incubated per tube. After incubation at 37° C. for 60 min., the islets were centrifuged. The supernatant was collected and stored at −80° C., and then later assayed for insulin using Rat Insulin ELISA Kit (Cat. No. INSKR020, Crystal Chem., Inc., Chicago, Ill.).\nFIGS. 11B and 11C show their effects on insulin secretion. Pancreatic islets were isolated from WT or UCP2 knockout (KO) mice. […]"}, "WT islets": {"system": "WT islets", "assay": "Glucose-stimulated insulin secretion in WT islets after chronic hyperglycemia", "type": "cell-based, mice", "conditions": "WT islets after 72 hours at 25 mM glucose; 5 μM genipin acutely added; 5.5, 12.5, 25 mM glucose; FIG. 12A", "experimental": "(§1) Pancreatic islets were isolated from WT (FIG. 12A) or UCP2 KO mice (FIG. 12B) and subjected to chronic incubations at low (5.5 mM) and high glucose (25 mM). In a separate experiment, islets were isolated from ob/ob mice (FIG. 12C). Islets were incubated for a total of 72 hours and washed, and then insulin-secretion studies were performed using three different concentrations of glucose (5.5, 12.5, and 25 mM) with or without 5 μM genipin. Results are means±SEM of four independent experiments (FIGS. 12A and 12B) or eight to twenty repeats of one representative experiment (FIG. 12C). WT islets that were chronically incubated at low glucose released increasing amounts of insulin in response to increasing concentrations of glucose (FIG. 12A, left panel). Following chronic hyperglycemia, islets increased basal insulin release, but were completely unresponsive to glucose stimulation (FIG. 12A, middle panel). […] To assess the role of genipin in hyperglycemia-induced loss of glucose responsiveness, genipin was acutely added into islets during the insulin-release phase of the study."}, "UCP2 KO islets": {"system": "UCP2 KO islets", "assay": "Glucose-stimulated insulin secretion in UCP2 KO islets after chronic hyperglycemia", "type": "cell-based, mice", "conditions": "UCP2 KO islets after 72 hours at 25 mM glucose; 5 μM genipin; FIG. 12B", "experimental": "as §1, with “study. […] To see whether this effect of genipin is mediated by UCP2, islets were isolated from UCP2 KO mice and then incubated in chronic hyperglycemia. […]” for “study.”"}}, "note": "Entries after “also recorded” stand apart in the source; their conditions may differ."}
{"smiles": "COC(=O)C1=CO[C@@H](O)[C@@H]2C(CO)=CC[C@H]12", "note": "[genipin]", "values": [{"measurement": "rate of proton leak as a function of mitochondrial membrane potential", "setting": "UCP2", "result": "proton leak occurred at nearly the same mitochondria membrane potential as in the control"}, {"measurement": "insulin secretion", "setting": "[1]", "result": "does not increase insulin secretion; also recorded: no effect on insulin secretion"}, {"measurement": "glucose-stimulated insulin secretion (GSIS)", "setting": "WT islets", "result": "prevented the hyperglycemia-induced block in GSIS"}, {"measurement": "glucose-stimulated insulin secretion (GSIS)", "setting": "UCP2 KO islets", "result": "no additional beneficial effect on GSIS"}]}
